Test results published in the NIST ThermoML archive (doi:10.1016/j.jct.2004.06.001).
Numbers after ± are expanded uncertainties.

Assay: mn = molality of the nth substance listed, in mol/kg
Details: Liquid

[I-].[Li+] [lithium iodide] + O
Details	mass density [kg/m3]
296.95 K, 2530 kPa, m1 = 1.605	1145.62 ± 0.71
296.95 K, 7845 kPa, m1 = 1.605	1148.05 ± 0.71
296.95 K, 17808 kPa, m1 = 1.605	1152.57 ± 0.74
296.95 K, 25811 kPa, m1 = 1.605	1156.03 ± 0.76
297.35 K, 2354 kPa, m1 = 0.6621	1061.06 ± 0.65
297.35 K, 12415 kPa, m1 = 0.6621	1065.64 ± 0.66
297.35 K, 21241 kPa, m1 = 0.6621	1069.52 ± 0.69
297.35 K, 29243 kPa, m1 = 0.6621	1072.92 ± 0.71
298.15 K, 101.33 kPa, m1 = 0.0906	1005.8 ± 0.61
298.15 K, 101.33 kPa, m1 = 0.2832	1024.34 ± 0.62
298.15 K, 101.33 kPa, m1 = 0.6621	1059.93 ± 0.64
298.15 K, 101.33 kPa, m1 = 1.605	1144.13 ± 0.7
298.15 K, 101.33 kPa, m1 = 3.089	1266.24 ± 0.79
308.15 K, 101.33 kPa, m1 = 0.0906	1002.8 ± 0.61
308.15 K, 101.33 kPa, m1 = 0.2832	1021.1 ± 0.62
308.15 K, 101.33 kPa, m1 = 0.6621	1056.4 ± 0.64
308.15 K, 101.33 kPa, m1 = 1.605	1139.99 ± 0.7
308.15 K, 101.33 kPa, m1 = 3.089	1261.08 ± 0.79
310.65 K, 2040 kPa, m1 = 3.089	1260.87 ± 0.79
310.65 K, 17475 kPa, m1 = 3.089	1267.92 ± 0.83
310.65 K, 24026 kPa, m1 = 3.089	1270.75 ± 0.85
313 K, 3020 kPa, m1 = 0.2832	1020.66 ± 0.62
313 K, 10866 kPa, m1 = 0.2832	1024.09 ± 0.64
313 K, 21163 kPa, m1 = 0.2832	1028.44 ± 0.66
313 K, 31204 kPa, m1 = 0.2832	1032.59 ± 0.7
313.75 K, 2275 kPa, m1 = 0.0906	1001.71 ± 0.61
313.75 K, 12572 kPa, m1 = 0.0906	1006.16 ± 0.63
313.75 K, 28596 kPa, m1 = 0.0906	1012.88 ± 0.67
318.15 K, 101.33 kPa, m1 = 0.0906	998.97 ± 0.61
318.15 K, 101.33 kPa, m1 = 0.2832	1017.22 ± 0.62
318.15 K, 101.33 kPa, m1 = 0.6621	1052.27 ± 0.64
318.15 K, 101.33 kPa, m1 = 1.605	1135.39 ± 0.7
318.15 K, 101.33 kPa, m1 = 3.089	1255.57 ± 0.79
328.15 K, 101.33 kPa, m1 = 0.0906	994.42 ± 0.61
328.15 K, 101.33 kPa, m1 = 0.2832	1012.6 ± 0.62
328.15 K, 101.33 kPa, m1 = 0.6621	1047.5 ± 0.64
328.15 K, 101.33 kPa, m1 = 1.605	1130.28 ± 0.7
328.15 K, 101.33 kPa, m1 = 3.089	1249.72 ± 0.78
338.15 K, 101.33 kPa, m1 = 0.0906	989.22 ± 0.61
338.15 K, 101.33 kPa, m1 = 0.2832	1007.35 ± 0.62
338.15 K, 101.33 kPa, m1 = 0.6621	1042.13 ± 0.64
338.15 K, 101.33 kPa, m1 = 1.605	1124.64 ± 0.7
338.15 K, 101.33 kPa, m1 = 3.089	1243.52 ± 0.78
348.15 K, 101.33 kPa, m1 = 0.0906	983.48 ± 0.6
348.15 K, 101.33 kPa, m1 = 0.2832	1001.55 ± 0.62
348.15 K, 101.33 kPa, m1 = 0.6621	1036.22 ± 0.64
348.15 K, 101.33 kPa, m1 = 1.605	1118.49 ± 0.7
348.15 K, 101.33 kPa, m1 = 3.089	1236.98 ± 0.78
348.4 K, 2157 kPa, m1 = 0.6621	1037.06 ± 0.64
348.4 K, 11670 kPa, m1 = 0.6621	1041.32 ± 0.66
348.4 K, 23850 kPa, m1 = 0.6621	1046.48 ± 0.7
348.4 K, 29910 kPa, m1 = 0.6621	1048.86 ± 0.72
348.45 K, 3334 kPa, m1 = 0.2832	1002.87 ± 0.62
348.45 K, 13808 kPa, m1 = 0.2832	1007.4 ± 0.64
348.45 K, 22536 kPa, m1 = 0.2832	1011.08 ± 0.67
348.45 K, 27851 kPa, m1 = 0.2832	1013.21 ± 0.69
348.5 K, 3589 kPa, m1 = 1.605	1119.98 ± 0.7
348.5 K, 10787 kPa, m1 = 1.605	1123.27 ± 0.72
348.5 K, 21516 kPa, m1 = 1.605	1128.02 ± 0.75
348.5 K, 27694 kPa, m1 = 1.605	1130.57 ± 0.77
349.05 K, 2275 kPa, m1 = 0.0906	983.91 ± 0.61
349.05 K, 7668 kPa, m1 = 0.0906	986.28 ± 0.62
349.05 K, 16573 kPa, m1 = 0.0906	990.13 ± 0.64
349.05 K, 21241 kPa, m1 = 0.0906	992.14 ± 0.65
373.2 K, 6276 kPa, m1 = 3.089	1222.39 ± 0.79
373.2 K, 17358 kPa, m1 = 3.089	1227.68 ± 0.83
373.2 K, 24674 kPa, m1 = 3.089	1230.96 ± 0.86
398.15 K, 3432 kPa, m1 = 0.0906	949.25 ± 0.6
398.15 K, 5511 kPa, m1 = 0.6621	1002.67 ± 0.64
398.15 K, 8728 kPa, m1 = 0.0906	951.87 ± 0.61
398.15 K, 15593 kPa, m1 = 0.6621	1007.74 ± 0.67
398.15 K, 16181 kPa, m1 = 0.0906	955.54 ± 0.64
398.15 K, 22554 kPa, m1 = 0.6621	1011.13 ± 0.7
398.15 K, 22710 kPa, m1 = 0.0906	958.45 ± 0.66
398.15 K, 29087 kPa, m1 = 0.6621	1013.99 ± 0.72
398.2 K, 2942 kPa, m1 = 1.605	1082.97 ± 0.69
398.2 K, 10787 kPa, m1 = 1.605	1087.05 ± 0.72
398.2 K, 21025 kPa, m1 = 1.605	1092.08 ± 0.75
398.2 K, 28753 kPa, m1 = 1.605	1095.49 ± 0.78
398.3 K, 3511 kPa, m1 = 0.2832	967.1 ± 0.61
398.3 K, 11925 kPa, m1 = 0.2832	971.24 ± 0.64
398.3 K, 21398 kPa, m1 = 0.2832	975.83 ± 0.67
398.3 K, 30636 kPa, m1 = 0.2832	979.93 ± 0.7
448.15 K, 4570 kPa, m1 = 3.089	1157.85 ± 0.78
448.15 K, 4903 kPa, m1 = 0.2832	922.17 ± 0.6
448.15 K, 14573 kPa, m1 = 3.089	1163.98 ± 0.81
448.15 K, 15593 kPa, m1 = 0.2832	928.54 ± 0.64
448.15 K, 22869 kPa, m1 = 3.089	1168.32 ± 0.85
448.15 K, 24340 kPa, m1 = 0.2832	933.52 ± 0.67
448.3 K, 3668 kPa, m1 = 0.0906	902.88 ± 0.59
448.3 K, 7924 kPa, m1 = 0.0906	905.5 ± 0.6
448.3 K, 15436 kPa, m1 = 0.0906	910.16 ± 0.63
448.3 K, 21810 kPa, m1 = 0.0906	913.8 ± 0.65
448.33 K, 4805 kPa, m1 = 0.6621	957.8 ± 0.63
448.33 K, 15200 kPa, m1 = 0.6621	963.27 ± 0.66
448.33 K, 24026 kPa, m1 = 0.6621	968.45 ± 0.7
448.33 K, 28675 kPa, m1 = 0.6621	970.94 ± 0.72
448.45 K, 3099 kPa, m1 = 1.605	1038.18 ± 0.68
448.45 K, 10375 kPa, m1 = 1.605	1042.6 ± 0.71
448.45 K, 25497 kPa, m1 = 1.605	1050.41 ± 0.77
472.53 K, 8081 kPa, m1 = 0.2832	897.8 ± 0.61
472.53 K, 16985 kPa, m1 = 0.2832	904 ± 0.64
472.53 K, 23614 kPa, m1 = 0.2832	908.3 ± 0.66
474.75 K, 6943 kPa, m1 = 1.605	1014.9 ± 0.69
474.75 K, 13317 kPa, m1 = 1.605	1020.2 ± 0.71
474.75 K, 24595 kPa, m1 = 1.605	1027 ± 0.76
475 K, 6198 kPa, m1 = 0.6621	929.3 ± 0.63
475 K, 15926 kPa, m1 = 0.6621	936.2 ± 0.66
475 K, 24517 kPa, m1 = 0.6621	941.7 ± 0.7
479.05 K, 7590 kPa, m1 = 3.089	1129.2 ± 0.78
479.05 K, 16907 kPa, m1 = 3.089	1135.6 ± 0.82
479.05 K, 21771 kPa, m1 = 3.089	1138.5 ± 0.84
521.05 K, 7924 kPa, m1 = 0.6621	872.4 ± 0.61
521.05 K, 11846 kPa, m1 = 0.6621	876.3 ± 0.63
521.05 K, 18221 kPa, m1 = 0.6621	882.3 ± 0.65
522.63 K, 9473 kPa, m1 = 0.2832	834.6 ± 0.59
522.63 K, 21516 kPa, m1 = 0.2832	846.6 ± 0.64
522.63 K, 27047 kPa, m1 = 0.2832	851.1 ± 0.66
522.91 K, 8493 kPa, m1 = 1.605	961.6 ± 0.68
522.91 K, 14867 kPa, m1 = 1.605	967.1 ± 0.71
522.91 K, 20050 kPa, m1 = 1.605	971.2 ± 0.73
523.15 K, 7178 kPa, m1 = 3.089	1079.91 ± 0.77
523.15 K, 12415 kPa, m1 = 3.089	1084.49 ± 0.79
523.15 K, 21810 kPa, m1 = 3.089	1091.96 ± 0.84
572.75 K, 12415 kPa, m1 = 0.6621	795.1 ± 0.6
572.75 K, 19201 kPa, m1 = 0.6621	806 ± 0.63
572.75 K, 24419 kPa, m1 = 0.6621	813.4 ± 0.65
573.15 K, 11591 kPa, m1 = 1.605	896.3 ± 0.67
573.15 K, 16338 kPa, m1 = 1.605	902.6 ± 0.7
573.15 K, 20672 kPa, m1 = 1.605	907.3 ± 0.72
575.75 K, 15022 kPa, m1 = 0.2832	750.9 ± 0.57
575.75 K, 19201 kPa, m1 = 0.2832	758.8 ± 0.59
575.75 K, 24516 kPa, m1 = 0.2832	767.7 ± 0.62
600.25 K, 12650 kPa, m1 = 3.089	1019.35 ± 0.79
600.25 K, 18534 kPa, m1 = 3.089	1025.9 ± 0.83
600.25 K, 22143 kPa, m1 = 3.089	1029.61 ± 0.85
